Assay results as given in patent US20230257444A1, “FUSION PROTEIN AND COMBINATIONS THEREOF” (Agency for Science, Technology and Research, priority 2020, published 2023).

How the values were obtained:
[1] = tested on: SC5314 Candida albicans; assay: In vitro combination therapy checkerboard dilution assay (Amphotericin B & hDectin1-Fc) with human primary macrophages; type: cell-based; settings: 24 hours, 37° C.
Protocol: Human peripheral blood CD14+ monocytes were cultured at 1×10^6 cells/mL in 5 mL of ImmunoCult™-SF Macrophage Differentiation Medium with Human Recombinant M-CSF at 50 ng/ml in a T-25 flask at 37° C. in a 5% CO2 incubator. On Day 4, 2.5 mL of fresh ImmunoCult™-SF Macrophage Differentiation Medium was added to the flask. On Day 6, M1 activation was initiated with the addition of 50 ng/mL IFN-γ. On Day 8, the macrophages were treated with ACCUTASE and scrapped from the flask. The cells were centrifuged and resuspended in RPMI medium with 10% FBS and seeded into 96 well plates at 10^5 cells/well. The co-culture assay involves the addition of 10^5 cells/well of SC5314 Candida albicans cells to wells containing 10^5 cells/well of human primary macrophages cells with final concentration of hDectin1-Fc at 0, 1, 10 or 100 g/ml and varying concentration of Amphotericin B in a checkerboard dilution assay format in a 96 well plate. The assay was incubated for 24 hr at 37° C. in a 5% CO2 atmosphere incubator and the MIC and MFC determined visual using a Nikon Eclipse Ti-E inverted microscope.
10′ Candida albicans cells and 10′ human primary macropahges were seeded per well in a checkerboard dilution assay of Amphotericin B with the respective concentration of hDectin1-Fc (0, 10, 100 μg/ml) and incubated for 24 hours at 37° C.

[2] = tested on: Candida albicans; assay: Minimum inhibitory concentration assay (CLSI reference method); type: cell-based; settings: 37° C.
Excerpt: Linker conjugation site and its length can affect the activity of drug in the way it is able to interact with its target as a result of a change in preferred conformation. Amphotericin B has two possible sites of conjugation: the carboxylic acid on the macrocyclic ring (C-linked) and the amine on the sugar (N-linked). To investigate how conjugation to each of these sites affects the activity of Amphotericin B, polyethylene glycol (PEG) linkers of three different repeat units were attached to them (FIG. 20) and their MIC of Candida albicans evaluated against the unconjugated free Amphotericin B.
The MIC assay of the N-linked and C-linked PEG conjugated Amphotericin B was conducted for 3 different PEG lengths of 4, 12 and 24 repeat units versus unconjugated Amphotericin B (Table 3). The PEG conjugated Amphotericin B and free Amphotericin B were diluted and incubated at 37° C. for 24 hrs with […] Candida albicans cells/well according to the CLSI reference method for antifungal susceptibility testing of yeasts.

Compound: C[C@@H]1[C@H](O)[C@@H](C)/C=C/C=C/C=C/C=C/C=C/C=C/C=C/[C@H](O[C@@H]2O[C@H](C)[C@@H](O)[C@H](N)[C@@H]2O)C[C@@H]2O[C@](O)(C[C@@H](O)C[C@@H](O)[C@H](O)CC[C@@H](O)C[C@@H](O)CC(=O)O[C@H]1C)C[C@H](O)[C@H]2C(=O)O [Amphotericin B]
- basal MFC of Amphotericin B ([1]; absence of hDectin1-Fc): 0.11 µM
- MFC of Amphotericin B ([1]; hDectin1-Fc concentration of 100 µg/ml): 0.06 µM
- 24hr MIC [2]: 0.75 μm
